Results reported in ChEMBL document CHEMBL1909294, “Translating clinical findings into knowledge in drug safety evaluation--drug induced liver injury prediction system (DILIps)” (PLoS Comput Biol, 2011).

Legend:
[1] = system: Hepatotoxicity
Description: Drug Induced Liver Injury Prediction System (DILIps) validation dataset; compound DILI positive/negative as observed in O'Brien data

[2] = system: Hepatotoxicity; remark: listed apart in the source
Description: Drug Induced Liver Injury Prediction System (DILIps) validation dataset; compound DILI positive/negative as observed in LTKB-BD

[3] = system: Hepatotoxicity; remark: listed apart in the source
Description: Drug Induced Liver Injury Prediction System (DILIps) validation dataset; compound DILI positive/negative as observed in Pfizer data

SMILES	DILI positive/negative [1]	DILI positive/negative [2]	DILI positive/negative [3]	DILI positive/negative ([1]; Liver)	DILI positive/negative ([2]; Liver)	DILI positive/negative ([3]; Liver)
Nc1ccc(C(=O)O)c(O)c1 [AMINOSALICYLIC ACID]	1	1	1	–	–	–
C[C@@](Cc1ccc(O)c(O)c1)(NN)C(=O)O.O [CARBIDOPA]	0	1	0	–	–	–
NC(=O)OCC(COC(N)=O)c1ccccc1 [FELBAMATE]	1	1	1	–	–	–
O=c1[nH]c(=O)n([C@@H]2O[C@H](CO)[C@@H](O)[C@@H]2F)cc1I [FIALURIDINE]	1	1	1	–	–	–
CC(=O)Oc1cc(C(C)C)c(OCCN(C)C)cc1C [MOXISYLYTE]	0	1	–	–	–	–
CS(=O)(=O)Nc1ccc([N+](=O)[O-])cc1Oc1ccccc1 [NIMESULIDE]	–	–	–	1	1	1
CC[N+](C)(CC)CCOC(=O)C(O)(c1ccccc1)C1CCCCC1 (stereo not given) [OXYPHENONIUM]	0	–	0	–	–	–
C#CCN(C)Cc1ccccc1 [PARGYLINE]	0	–	0	–	–	–
CCCCC1C(=O)N(c2ccccc2)N(c2ccccc2)C1=O [PHENYLBUTAZONE]	–	–	–	1	–	1
CNC(=O)Oc1ccc2c(c1)[C@]1(C)CCN(C)[C@@H]1N2C [PHYSOSTIGMINE]	0	–	0	–	–	–
CC(N/C(=N\C#N)Nc1ccncc1)C(C)(C)C (stereo not given) [PINACIDIL ANHYDROUS]	0	–	0	–	–	–
Cc1ncc(CO)c(CO)c1O [PYRIDOXINE]	–	–	–	0	–	0
Cc1nnc(NS(=O)(=O)c2ccc(N)cc2)s1 [SULFAMETHIZOLE]	1	–	1	–	–	–
Cc1cc(NS(=O)(=O)c2ccc(N)cc2)no1 [SULFAMETHOXAZOLE]	–	–	–	1	1	–
CC(C)(C)c1ccc(C(O)CCCN2CCC(C(O)(c3ccccc3)c3ccccc3)CC2)cc1 (stereo not given) [TERFENADINE]	1	–	0	–	–	–
Cc1ncc(C[n+]2csc(CCO)c2C)c(N)n1 [THIAMINE ION]	–	–	–	0	–	0
CC(c1cc2ccccc2s1)N(O)C(N)=O (stereo not given) [ZILEUTON]	1	1	1	–	–	–
